Test results as given in patent US20090130212A1, “COMPOSITION AND IMPROVED METHOD FOR PREPARATION OF SMALL PARTICLES” (PHYSICAL PHARMACEUTICA, LLC, priority 2006, published 2009).

Tests used:
Assay type in all cases: physicochemical
[1] = Dissolution of ibuprofen in 0.01N HCl, microdialysis sampling and HPLC (Example 3); conditions: 50 ml 0.01N HCl pH 2, 25° C
Experimental: The remaining ether was removed by evaporation at room temperature in a vacuum oven at less than 10 torr, for 2 hours.

[2] = pKa / ionization of ibuprofen; conditions: pH of 2
[3] = Aqueous solubility of ibuprofen; conditions: pH 2, in 50 ml

CC(C)Cc1ccc(C(C)C(=O)O)cc1 (centres unmarked) [pure ibuprofen, ibuprofen]
amount of ibuprofen dissolved ([1]; after five minutes): approximately 790 mcg | amount of ibuprofen dissolved ([1]; after one minute): approximately 190 mcg | amount of ibuprofen dissolved ([1]; after two minutes): approximately 350 mcg | fraction unionized [2]: more than 99% | amount dissolved corresponding to solubility [3]: 4000 µg
